Details: both, Yorkshire x Landrace cross sows bred with Hampshire boars, pig, in vivo, 6 days
Protocol: The TAG tracer (TAG-^13C-DHA) had ^13C-DHA in the sn-2 position with unlabeled 16:0 in the sn-1 and sn-3 positions. The tracer representative for PL was phosphatidylcholine (PC) with ^13C-DHA in the sn-2 position and unlabeled 16:0 in the sn-1 position (PC-^13C-DHA).
Sows (Yorkshire and Landrace cross) were bred with Hampshire boars. After birth, piglets were left to nurse with the sow for at least 48 hours. Twenty piglets, 2 to 4 days of age, were chosen for the study based on the following criteria: weight (about 2.0 kg), gender (10 males and 10 females), health (active and apparently normal, and not the smallest animal in the litter) and sow. Piglets were given a unique number/color combination identifier and then were transported to Large Animal Research and Teaching Unit (LARTU), Cornell University.
At the study site, piglets were housed in individual stainless steel cages and were placed on a single fully balanced commercially available young farm animal milk replacer formula immediately upon arrival.
On day 16 of life, 16 robust piglets were assigned to two dosing groups balanced with respect to gender, weight, and age but otherwise distributed randomly. Group PC were orally dosed with PC-^13C-DHA; Group TG were dosed with TG-^13C-DHA.
Doses were prepared by dissolving CHC13 solutions of PC-^13C-DHA or TAG-^13C-DHA in about 1 mL of refined olive oil and driving off the CHCl3 by gentle heating under flowing dry N2 over 4 hours. The resulting olive oils were carefully placed on the surface of a few mL of reconstituted piglet formula and sonicated until homogeneous. The resulting labeled formula was split into 1 to 2 mL aliquots gravimetrically and administered orally to piglets, followed by several washes of the vials containing the labeled formulas, at the beginning of a feed. Care was taken to insure all of the labeled formula and the washes, consisting of a total of up to 10 mL, were swallowed by the piglets. Piglets were then provided with their normal meal of 500 mL milk replacer which they routinely consume completely. Doses to piglets corresponded to about 20 mg ^13C-DHA delivered in PC and 86 mg of ^13C-DHA delivered in TAG.
Six days after the dose, and on a single day after 20 days of formula, all piglets were euthanized by exsanguination under anesthesia. Blood for fatty acid analysis was collected in tubes with EDTA and spun to prepare red blood cells. […] A piece was immediately used for preparation of synaptosomes, and the remaining grey matter was flash frozen for fatty acid analysis. Retina, heart, liver, biceps femoris muscle and kidney were also harvested, and all tissues were flash frozen and stored at −80° C. until prepared for analysis. […]

SMILES: CC/C=C\C/C=C\C/C=C\C/C=C\C/C=C\C/C=C\CCC(=O)O [^13C-DHA, docosahexaenoic acid]
- 13C-DHA relative to 13C-DPA in grey matter: about 8 fold
- 13C-DHA relative to 13C-DPA in liver: 40 fold
- 13C-DHA relative to DPAn-3 in retina: 6.3 fold
- liver 13C-DHA relative to grey matter 13C-DHA: about 20 fold
